This passage reports MIC results from ChEMBL document CHEMBL1687815, “In vivo selection of a missense mutation in adeR and conversion of the novel blaOXA-164 gene into blaOXA-58 in carbapenem-resistant Acinetobacter baumannii isolates from a hospitalized patient” (2010).

The subject of experiment [1] is Acinetobacter baumannii. Description: Antimicrobial activity against Acinetobacter baumannii isolate J expressing beta-lactamase OXA-58 isolated from bedsore by vitek 2 system.
The test system of experiment [2] is Acinetobacter baumannii. Description: Antimicrobial activity against Acinetobacter baumannii isolate F expressing beta-lactamase OXA-164 isolated from tracheostoma of patient by vitek 2 system.
Experiment [3] deals with Acinetobacter baumannii. Description: Antimicrobial activity against Acinetobacter baumannii isolate K expressing beta-lactamase OXA-58 isolated from blood culture of patient by vitek 2 system.
In experiment [4] the test system is Acinetobacter baumannii. Briefly: Antimicrobial activity against Acinetobacter baumannii isolate G expressing beta-lactamase OXA-58 isolated from tracheal secretion of patient by vitek 2 system.
Experiment [5] deals with Acinetobacter baumannii. Description: Antimicrobial activity against Acinetobacter baumannii isolate H expressing beta-lactamase OXA-58 isolated from tracheal secretion of patient by vitek 2 system.
Experiment [6] has as its system Acinetobacter baumannii. Briefly: Antimicrobial activity against Acinetobacter baumannii isolate I expressing beta-lactamase OXA-58 isolated from tracheal secretion of patient by vitek 2 system.
Experiment [7] concerns Acinetobacter baumannii. Briefly: Antimicrobial activity against Acinetobacter baumannii isolate L expressing beta-lactamase OXA-58 isolated from tracheal secretion of patient by vitek 2 system.
In experiment [8] the test system is Acinetobacter baumannii. Description: Antimicrobial activity against Acinetobacter baumannii isolate M expressing beta-lactamase OXA-58 isolated from tracheal secretion of patient by vitek 2 system.
The subject of experiment [9] is Acinetobacter baumannii. Briefly: Antimicrobial activity against Acinetobacter baumannii isolate A expressing beta-lactamase OXA-164 isolated from tracheal secretion of patient by vitek 2 system.
The test system of experiment [10] is Acinetobacter baumannii. Description: Antimicrobial activity against Acinetobacter baumannii isolate B expressing beta-lactamase OXA-164 isolated from tracheal secretion of patient by vitek 2 system.
Experiment [11] concerns Acinetobacter baumannii. Description: Antimicrobial activity against Acinetobacter baumannii isolate C expressing beta-lactamase OXA-164 isolated from tracheal secretion of patient by vitek 2 system.
In experiment [12] the test system is Acinetobacter baumannii. Description: Antimicrobial activity against Acinetobacter baumannii isolate D expressing beta-lactamase OXA-164 isolated from tracheal secretion of patient by vitek 2 system.
Experiment [13] deals with Acinetobacter baumannii. Description: Antimicrobial activity against Acinetobacter baumannii isolate E expressing beta-lactamase OXA-164 isolated from tracheal secretion of patient by vitek 2 system.

Values after ≈ are worked out from the molar mass of the structure shown. Active and inactive are the calls of the source.

As usually defined, the MIC is the smallest concentration in the dilution series that meets the test's criterion for growth inhibition. In the case of `CC(C)(O/N=C(\C(=O)N[C@@H]1C(=O)N2C(C(=O)[O-])=C(C[n+]3ccccc3)CS[C@H]12)c1csc(N)n1)C(=O)O`, the MIC result in experiment [1], in [2], in experiment [3], in experiment [4], in experiment [5] and in experiment [6] was “inactive” in each case. In addition, the MIC entry in experiment [7], in experiment [8], in [9], in [10], in experiment [11] and in [12] was “inactive” in each case. In addition, the MIC result in experiment [13] was “inactive”.

Consider `CO/N=C(\C(=O)N[C@@H]1C(=O)N2C(C(=O)O)=C(COC(C)=O)CS[C@H]12)c1csc(N)n1`, for which the MIC entry in [1], in experiment [2], in experiment [3], in experiment [4], in experiment [5] and in [6] was “inactive” throughout. For the same compound, the MIC entry in [7], in experiment [8], in [9], in experiment [10], in experiment [11] and in experiment [12] was “inactive” each time. For the same compound, the MIC result in experiment [13] was “inactive”.

`CO/N=C(\C(=O)N[C@@H]1C(=O)N2C(C(=O)[O-])=C(C[N+]3(C)CCCC3)CS[C@H]12)c1csc(N)n1`: the MIC result in experiment [1], in [2], in experiment [3], in experiment [4], in experiment [5] and in experiment [6] was “inactive” throughout. The MIC result in [7], in [8], in experiment [9], in experiment [10], in experiment [11] and in experiment [12] was “inactive” each time. For the same compound, in [13], the MIC entry is “inactive”.

Take `CO[C@@]1(NC(=O)Cc2cccs2)C(=O)N2C(C(=O)O)=C(COC(N)=O)CS[C@@H]21`: the MIC result in experiment [1], in [2], in [3], in experiment [4], in [5] and in [6] was “inactive” in each case. The MIC result in [7], in [8], in experiment [9], in experiment [10], in [11] and in experiment [12] was “inactive” each time. In experiment [13], the MIC entry was “inactive”.

As for `COc1c(N2C[C@@H]3CCCN[C@@H]3C2)c(F)cc2c(=O)c(C(=O)O)cn(C3CC3)c12`, the MIC entry in experiment [1], in experiment [2], in experiment [3], in experiment [4], in experiment [5] and in experiment [6] was “inactive” in each case. Further, the MIC entry in [7], in experiment [8], in experiment [9], in experiment [10], in experiment [11] and in experiment [12] was “inactive” each time. In experiment [13], the MIC result is “inactive”.

For the compound `C[C@@H]1O[C@@H]1P(=O)(O)O`, the MIC entry in [1], in [2], in experiment [3], in experiment [4], in [5] and in experiment [6] was “inactive” throughout. Besides, the MIC entry in [7], in experiment [8], in experiment [9], in experiment [10], in experiment [11] and in experiment [12] was “inactive” each time. Also, in [13], the MIC result was “inactive”.

With `O=C(O)c1cn(C2CC2)c2cc(N3CCNCC3)c(F)cc2c1=O`, the MIC result in experiment [1], in experiment [3], in [4], in experiment [5], in experiment [6] and in experiment [7] was “inactive” each time. Further, the MIC entry in experiment [8], in experiment [9], in experiment [10], in experiment [11], in experiment [12] and in [13] was “inactive” throughout.

As for `NCC[C@H](O)C(=O)N[C@@H]1C[C@H](N)[C@@H](O[C@H]2O[C@H](CN)[C@@H](O)[C@H](O)[C@H]2O)[C@H](O)[C@H]1O[C@H]1O[C@H](CO)[C@@H](O)[C@H](N)[C@H]1O` [AMIKACIN], the MIC in experiment [1], in experiment [2], in experiment [3], in experiment [4], in experiment [5] and in experiment [6] was ≥ 64 µg/mL each time. The MIC was ≥ 64 µg/mL in [7]; ≥ 64 µg/mL in experiment [8]; ≥ 64 µg/mL in [9]; ≥ 64 µg/mL in [10]; 32 µg/mL (≈ 54.6 µM) in experiment [11]; ≤ 2 µg/mL in experiment [12]. Besides, in experiment [13], the MIC was ≤ 2 µg/mL.

Take COLISTIN: the MIC in [1], in experiment [2], in [3], in experiment [4], in experiment [5] and in [6] was < 1 µg/mL throughout. The MIC in experiment [7], in experiment [8], in experiment [9], in experiment [10], in [11] and in experiment [12] was < 1 µg/mL throughout. The MIC in experiment [13] was < 1 µg/mL.

As for GENTAMICIN, the MIC result in [1], in experiment [2], in experiment [3], in [4], in experiment [5] and in [6] was “inactive” each time. Further, the MIC entry in [7], in experiment [8], in [9], in experiment [10], in experiment [11] and in experiment [12] was “inactive” in each case. In experiment [13], the MIC result is “inactive”.
